Laboratory results from US10377741B2, “Substituted heteroaryl aldehyde compounds and methods for their use in increasing tissue oxygenation” (Global Blood Therapeutics, Inc., priority 2011, dated 2019).

target: T1, purified Hemoglobin S (HbS) (Homo sapiens, UniProt P68871+P69905, E7V); test: Modulation of hemoglobin oxygen affinity: oxygen equilibrium curves (HEMOX) in purified HbS; assay type: biochemical, human (homozygous sickle cell patients); conditions: compound at 30 μM; 25 μM purified HbS, 45 min at 37° C.
T1 construct: HbS was purified by a modified procedure; from tissue; host or cells: blood of homozygous sickle cell patients (CHORI); for the polymerization assay purified by the CRO VIRUSYS
Method: Oxygen equilibrium curves (OEC) in purified Hemoglobin S (HbS) were measured by the change in p50, the partial pressure of oxygen at which the heme binding sites in the HbS sample are 50% saturated with oxygen. HbS was purified by a modified procedure (Antonini and Brunori, 1971; Heomoglobin and Myoglobin in their Reactions with Ligands; North Holland Publishing Company; Amsterdam, London) from blood obtained from homozygous sickle cell patients though the Hemoglobinopathy Center at Children's Hospital Oakland Research Institute (CHORI) with Institutional Review Board approval. Oxygen equilibrium curves were carried out with a HEMOX analyzer, (TCS Scientific, New Hope, Pa.). Five hundred μL of 250 μM purified HbS were diluted into 4.5 mL of HEMOX buffer (30 mM TES, 130 mM NaCl, 5 mM KCl, pH=7.4) resulting in a final hemoglobin concentration of 25 μM. The compounds were added at the final desired concentrations. The mixture was incubated for 45 min at 37° C. and then transferred to the Hemox sample chamber. The samples were saturated with oxygen by flushing with compressed air for 10 minutes. The samples were then flushed with pure nitrogen and the absorbance of deoxy-Hb was recorded as a function of the solution pO2. The oxygen equilibrium data was then fit to the Hill Model to obtain values for p50. The deoxygenation curves for both HbS alone (control) and HbS in the presence of compound were collected with the TCS software. The p50 for purified Hbs was typically 13.8±1.6. Delta p50 values were obtained from the p50 value for control minus the p50 value for HbS treated with compound divided by the p50 value for the control.
The compounds of Table 1 that were where tested in the assay above were all found to have positive delta p50 values. Delta p50% is calculated from [[p50(HbS) −p50(HbS treated with compound)]/p50(HbS)]×100. Table 2 below lists the delta p50% values where + indicates a delta p50% of between 0 and 29, ++ indicates a delta p50% of between 30 and 50, and +++ indicates a delta p50% of 50 or greater. Unless noted otherwise, the compounds in Table 2 were tested at 30 μM.

delta p50% | SMILES
+ (a delta p50% of between 0 and 29) | Cc1ccc(OCc2cnc3ccccc3c2)c(C=O)n1 [Compound 81, 6-methyl-3-(quinolin-3-ylmethoxy)picolinaldehyde]
+ (a delta p50% of between 0 and 29) | COc1cc(C=O)c(OCc2ccc3c(c2)c(Cl)nn3C)cn1 [Compound 111]
+ (a delta p50% of between 0 and 29) | COc1cc(C=O)c(OCc2cncc(-c3cn[nH]c3)c2)cn1 [Compound 76, 5-((5-(1H-pyrazol-4-yl)pyridin-3-yl)methoxy)-2-methoxyisonicotinaldehyde]
+ (a delta p50% of between 0 and 29) | CNC(=O)c1cccn2cc(COc3cnc(OC)cc3C3OCCO3)nc12 [Compound 69, 2-((4-(1,3-dioxolan-2-yl)-6-methoxypyridin-3-yloxy)methyl)-N-methylimidazo[1,2-a]pyridine-8-carboxamide]
+ (a delta p50% of between 0 and 29) | COc1cc(C=O)c(OCc2cnc3ccccc3n2)cn1 [Compound 118, 2-methoxy-5-(quinoxalin-2-ylmethoxy)isonicotinaldehyde]
+ (a delta p50% of between 0 and 29) | COc1cc(C=O)c(OCc2ccnc3c2c(C)nn3C)cn1 [Compound 114, 5-((1,3-dimethyl-1H-pyrazolo[3,4-b]pyridin-4-yl)methoxy)-2-methoxyisonicotinaldehyde]
+ (a delta p50% of between 0 and 29) | COc1cc(C=O)c(OCc2cnccc2C)cn1 [Compound 39, 2-methoxy-5-((4-methylpyridin-3-yl)methoxy)isonicotinaldehyde]
+ (a delta p50% of between 0 and 29) | COc1cc(C(O)O)c(OCc2cn3cccc(C(N)=O)c3n2)cn1 [Compound 73, 2-((4-(dihydroxymethyl)-6-methoxypyridin-3-yloxy)methyl)imidazo[1,2-a]pyridine-8-carboxamide]
+ (a delta p50% of between 0 and 29) | COc1cc(C2OCCO2)c(OCc2cn3cccc(C(N)=O)c3n2)cn1 [Compound 68, 2-((4-(1,3-dioxolan-2-yl)-6-methoxypyridin-3-yloxy)methyl)imidazo[1,2-a]pyridine-8-carboxamide]
+ (a delta p50% of between 0 and 29) | COc1cc(C=O)c(OCc2cc3ccccc3nc2-c2ccn[nH]2)cn1 [Compound 117]
+ (a delta p50% of between 0 and 29) | COc1cc(C=O)c(OCc2cccnc2-c2cnn(C)c2)cn1 [Compound 127, 2-methoxy-5-((2-(1-methyl-1H-pyrazol-4-yl)pyridin-3-yl)methoxy)isonicotinaldehyde]
+ (a delta p50% of between 0 and 29) | COc1cc(C=O)c(OCc2cnc3c(cnn3C)c2)cn1 [Compound 122, 2-methoxy-5-((1-methyl-1H-pyrazolo[3,4-b]pyridin-5-yl)methoxy)isonicotinaldehyde]
+ (a delta p50% of between 0 and 29) | COc1cc(C=O)c(OCc2cncc(-c3cnn(C)c3)c2)cn1 [Compound 77, 2-methoxy-5-((5-(1-methyl-1H-pyrazol-4-yl)pyridin-3-yl)methoxy)isonicotinaldehyde]
+ (a delta p50% of between 0 and 29) | O=Cc1cnccc1OCc1cccnc1 [Compound 1, 4-(pyridin-3-ylmethoxy)nicotinaldehyde]
+ (a delta p50% of between 0 and 29) | COc1cc(C=O)c(OCc2cccnc2C#N)cn1 [Compound 64, 3-((4-formyl-6-methoxypyridin-3-yloxy)methyl)picolinonitrile]
+ (a delta p50% of between 0 and 29) | COc1cc(C=O)c(OCc2nc3ccccn3c2-c2ccn[nH]2)cn1 [Compound 59, 5-((3-(1H-pyrazol-5-yl)imidazo[1,2-a]pyridin-2-yl)methoxy)-2-methoxyisonicotinaldehyde]
+ (a delta p50% of between 0 and 29) | COc1cc(C=O)c(OCc2cncc(C(N)=O)c2)cn1 [Compound 101, 5-((4-formyl-6-methoxypyridin-3-yloxy)methyl)nicotinamide]
+ (a delta p50% of between 0 and 29) | COc1cc(C=O)c(OCc2cc3ccccc3nc2Cl)cn1 [Compound 116, 5-((2-chloroquinolin-3-yl)methoxy)-2-methoxyisonicotinaldehyde]
+ (a delta p50% of between 0 and 29) | COC(=O)c1cc(COc2cnc(OC)cc2C=O)c2nc(Br)cn2c1 [Compound 138, methyl 2-bromo-8-(((4-formyl-6-methoxypyridin-3-yl)oxy)methyl)imidazo[1,2-a]pyridine-6-carboxylate]
+ (a delta p50% of between 0 and 29) | Cc1ccc(OCc2cnc3c(cnn3C)c2)c(C=O)n1 [Compound 121, 6-methyl-3-((1-methyl-1H-pyrazolo[3,4-b]pyridin-5-yl)methoxy)picolinaldehyde]
+ (a delta p50% of between 0 and 29) | COc1cc(C=O)c(OCc2cccnc2-c2c(C)cnn2C)cn1 [Compound 142, 5-((2-(1,4-dimethyl-1H-pyrazol-5-yl)pyridin-3-yl)methoxy)-2-methoxyisonicotinaldehyde]
+ (a delta p50% of between 0 and 29) | COc1cc(C=O)c(OCc2cnccc2-c2ccn[nH]2)cn1 [Compound 71, 5-((4-(1H-pyrazol-5-yl)pyridin-3-yl)methoxy)-2-methoxyisonicotinaldehyde]
+ (a delta p50% of between 0 and 29) | COc1cc(C=O)c(OCc2ccc3[nH]ncc3c2)cn1 [Compound 107, 5-((1H-indazol-5-yl)methoxy)-2-methoxyisonicotinaldehyde]
+ (a delta p50% of between 0 and 29) | COc1cc(C=O)c(OCc2cc(-c3ccn[nH]3)cn3ccnc23)cn1 [Compound 104, 5-((6-(1H-pyrazol-5-yl)imidazo[1,2-a]pyridin-8-yl)methoxy)-2-methoxyisonicotinaldehyde]
+ (a delta p50% of between 0 and 29) | COc1cc(C=O)c(OCc2cccnc2)cn1 [Compound 42, 2-methoxy-5-(pyridin-3-ylmethoxy)isonicotinaldehyde]
+ (a delta p50% of between 0 and 29) | COC(=O)c1cncc(COC(=O)c2cncc(COc3cnc(OC)cc3C=O)c2)c1 [Compound 141, (5-(methoxycarbonyl)pyridin-3-yl)methyl 5-(((4-formyl-6-methoxypyridin-3-yl)oxy)methyl)nicotinate]

same assay, conditions: compound at 100 μM; 25 μM purified HbS, 45 min at 37° C.

delta p50% | SMILES
+ (a delta p50% of between 0 and 29) | O=Cc1cccnc1CCc1cccn2ccnc12 [Compound 12, 2-(2-(imidazo[1,2-a]pyridin-8-yl)ethyl)nicotinaldehyde]
++ (a delta p50% of between 30 and 50) | COc1cc(C=O)c(OCc2ccncc2Br)cn1 [Compound 48, 5-((3-bromopyridin-4-yl)methoxy)-2-methoxyisonicotinaldehyde]
+ (a delta p50% of between 0 and 29) | COc1cc(C=O)c(OCc2ccc(C(F)(F)F)nc2)cn1 [Compound 40, 2-methoxy-5-((6-(trifluoromethyl)pyridin-3-yl)methoxy)isonicotinaldehyde]
++ (a delta p50% of between 30 and 50) | COc1cc(C=O)c(OCc2cn3cccc(Br)c3n2)cn1 [Compound 57, 5-((8-bromoimidazo[1,2-a]pyridin-2-yl)methoxy)-2-methoxyisonicotinaldehyde]
++ (a delta p50% of between 30 and 50) | COc1cc(C=O)c(OCc2ccn(C)c(=O)c2)cn1 [Compound 54, 2-methoxy-5-((1-methyl-2-oxo-1,2-dihydropyridin-4-yl)methoxy)isonicotinaldehyde]
